# Data as given in US20080249176A1, “Methods and Compositions for the Treatment of Myocardial Conditions” (priority 2004, published 2008).
# Columns and labels:
# [1] = test system: Na^+—K^+ pump; experiment: Whole-cell patch clamp measurement of Na+-K+ pump current (Ip) in isolated cardiac myocytes; type: cell-based, rabbit
# Text: The whole-cell patch clamp technique (Hamill et al, 1981; Buhagier et al, 2004; Hansen et al, 2002) was used to examine the effect of β3 adrenoceptor stimulation on the Na^+—K^+ pump in isolated cardiac myocytes.
# With the whole-cell patch clamp technique myocytes are suspended in a tissue bath mounted on the stage of an inverted microscope. A fine glass pipette is attached to the cell membrane and gentle suction applied to rupture the membrane patch directly under the tip of the glass pipette. This allows the intracellular compartment of the myocyte to be perfused with solution contained in the patch pipette. It also allows access of drugs and compounds to the intracellular compartment. Control of the composition of the extracellular solution in the tissue bath is achievable. The technique also allows control of membrane voltage and measurement of total membrane current.
# The Na^+—K^+ pump's 3Na^+:2K^+ exchange ratio generates a current (Ip) that can be measured as the shift in holding current of the patch-clamped myocyte that is induced by pump blockade with 100 μM ouabain.
# In the whole-cell configuration the bath was perfused with modified Tyrode's solution which contained (in mmol/L) NaCl 140; KCl 5.6; CaCl2 2.16; MgCl2 1; NaH2PO4 0.44; glucose 10 and Na-glutamate 9; N-2-hydroxyethyl piperazine-N′-2-[…] (HEPES) 10. The solution was titrated to a pH of 7.40±0.01 at 35° C. with NaOH.
# For measurement of Ip the system was switched to a superfusate that usually was identical to the modified Tyrode's solution except that it was nominally Ca^2+-free and contained 0.2 mmol/L CdCl2 and 2 mmol/L BaCl2.
# Wide-tipped patch pipettes (4-5 μm) were filled with solutions containing (in mmol/L) HEPES 5; MgATP 2; ethylene glycol-bis(β-aminoethyl ether)-N,N,N′,N′-tetraacetic acid (EGTA) 5; KCl 70 mmol/L. Osmotic balance was maintained with 80 mmol/L tetramethylammonium chloride (TMA-Cl). The solutions were titrated to a pH of 7.05±0.01 at 35° C. with 1 mmol/L TMA-OH. Ip was identified at a holding potential of −40 mV as the shift in holding current induced by Na^+—K^+ pump blockade with 100 μmol/L ouabain 10-15 minutes after the whole-cell configuration had been established. […] Details of patch pipette characteristics and equipment and criteria for defining Ip have been reported previously (Buhagiar et al, 1999).
# The whole-cell patch clamp technique was similar to that described above except that extracellular Na^+ was eliminated (NaCl was replaced with N-methyl-D-glucamine (NMG.Cl)) to rule out any possible influx of Na^+ across the cell membrane.
# [2] = test system: model of ischaemic cardiomyopathy with severe heart failure induced by repeated coronary microembolisation in sheep; experiment: Sheep heart failure model, left ventricular end systolic pressure-volume relationship (ESPVR); type: in vivo; settings: intravenous infusion, increasing doses, mean of 3 sheep, FIG. 6
# Method: To examine the effect of acute activation of the β3-receptor we used a model of ischaemic cardiomyopathy with severe heart failure induced by repeated coronary microembolisation in sheep (Huang, Y et al., Am J Physiol 286: H2141-50, 2004). The model is stable and reflects the human condition well (Huang et al, 2004).
# BRL 37344 was administered by intravenous infusion over a period of 8 min, starting with the lowest dose of the protocol. After an additional 5 min pressure-volume relationships were determined as described (Huang et al., 2004). The procedure was then repeated in an identical fashion using a larger dose of BRL 37344. The left ventricular end systolic pressure-volume relationship (ESPVR) was used as an index of cardiac performance. ESPVR is relatively independent of confounding factors such as pre- and after-load and heart rate, and is widely accepted as a good index of left ventricular function.
# Results are shown in FIG. 6, both before and after induction of heart failure. The independent variable on the abscissa indicates the dose in microgram BRL 37344 per kg weight of the sheep. Note the logarithmic increment in dose. The mean of ESPVR measured in 3 different sheep before and after induction of severe heart failure is shown on the ordinate. […]
# [3] = test system: PKA; settings: H-89 0.5 μM; cited from earlier work
compound,measurement,setting,value
"NC[C@H](O)c1ccc(O)c(O)c1 [NA, noradrenaline]",NA-induced increase in Ip with β1/β2 blockade,"[1]; 10 nM NA + 1 μM nadolol, FIG. 4",persisted in the presence of nadolol
same,NA-induced increase in Ip with PKA blockade,"[1]; 10 nM NA, 0.5 μM H-89 in patch pipette solution, FIG. 4",persisted with PKA blockade
same,Effect on Ip,"[1]; 10 nM NA, FIG. 4",induced an increase in Ip
O=C(Nc1ncnc2c1ncn2[C@@H]1O[C@@H]2COP(=O)(O)OC2C1O)c1ccccc1 (stereo in doubt) [6-Bnz-cAMP],Effect on Ip,"[1]; 100 μM 6-Bnz-cAMP in patch pipette solution, NA-free control superfusate, FIG. 5",significant decrease in Ip
CC(C)(C)NCC(O)COc1cccc2c1CC(O)C(O)C2 (stereo not drawn) [nadolol],"Na,K-pump activity with nadolol in the presence of 100 nM BRL 37344 compared to 100 nM BRL 37344 alone","[1]; nadolol 1 μM + 100 nM BRL 37344 in superfusate, FIG. 2","increased, although not quite significantly"
C[C@H](Cc1ccc(OCC(=O)O)cc1)NC[C@H](O)c1cccc(Cl)c1 [BRL 37344],"BRL 37344-induced stimulation of the Na,K-pump in the absence of extracellular Na^+","[1]; 10 nM BRL 37344, NaCl replaced by NMG.Cl, FIG. 3",persisted in the absence of extracellular Na^+
same,"Na,K-pump activity at 100 nM in comparison with activity observed with 10 nM","[1]; 100 nM vs 10 nM BRL 37344, pipette Na 10 mM, FIG. 1",apparent lower activity
same,Na^+—K^+ pump current (Ip) in comparison with normal controls,"[1]; BRL 37344 1 nM, 10 nM and 100 nM, pipette Na 10 mM, FIG. 1",significantly stimulates
same,Slope of linear regression of log dose vs. ESPVR,[2]; normal sheep (before induction of heart failure),trend towards a negative slope
same,Slope of linear regression of log dose vs. ESPVR,[2]; sheep after induction of severe heart failure,significantly positive
"Cl.Cl.O=S(=O)(NCCNCC=Cc1ccc(Br)cc1)c1cccc2cnccc12 [H-89, N-[2-(p-Bromocinnamylamino)ethyl]-5-isoquinolinesulfonamide dihydrochloride]",Effect on 6-Bnz-cAMP-induced decrease in Ip,"[1]; H-89 0.5 μM + 6-Bnz-cAMP 100 μM in pipette solution, FIG. 5",reversed the 6-Bnz-cAMP-induced decrease in Ip
same,Effect on PKA-mediated Na^+—K^+ pump inhibition,[3],abolishes PKA-mediated Na^+—K^+ pump inhibition
